According to patent US20080085889A1, “Amidomethyl-Substituted 1-(Carboxyalkyl) Cyclopentyl-Carbonylamino-Benzazepine-N-Acetic Acid Compounds, Process and Intermediate Products for Their Preparation and Pharmaceutical Compositions Containing Them” (SOLVAY PHARMACEUTICALS GmbH, priority 2003, published 2008):
pIC50: −log10 of the molar value.

Columns and labels:
[1] = molecular target: T1, His6-tagged hSEP ectodomain (Homo sapiens, UniProt Q495T6); assay: In vitro investigation of the hSEP-inhibitory action (fluorescence-quenched Big-ET-1 analogue, HPLC); assay type: biochemical
T1 construct: His6-tagged hSEP ectodomain; His6; purchased Innogenetics, Ghent, Belgium
T1 sequence (Q495T6 49-779 limits assumed): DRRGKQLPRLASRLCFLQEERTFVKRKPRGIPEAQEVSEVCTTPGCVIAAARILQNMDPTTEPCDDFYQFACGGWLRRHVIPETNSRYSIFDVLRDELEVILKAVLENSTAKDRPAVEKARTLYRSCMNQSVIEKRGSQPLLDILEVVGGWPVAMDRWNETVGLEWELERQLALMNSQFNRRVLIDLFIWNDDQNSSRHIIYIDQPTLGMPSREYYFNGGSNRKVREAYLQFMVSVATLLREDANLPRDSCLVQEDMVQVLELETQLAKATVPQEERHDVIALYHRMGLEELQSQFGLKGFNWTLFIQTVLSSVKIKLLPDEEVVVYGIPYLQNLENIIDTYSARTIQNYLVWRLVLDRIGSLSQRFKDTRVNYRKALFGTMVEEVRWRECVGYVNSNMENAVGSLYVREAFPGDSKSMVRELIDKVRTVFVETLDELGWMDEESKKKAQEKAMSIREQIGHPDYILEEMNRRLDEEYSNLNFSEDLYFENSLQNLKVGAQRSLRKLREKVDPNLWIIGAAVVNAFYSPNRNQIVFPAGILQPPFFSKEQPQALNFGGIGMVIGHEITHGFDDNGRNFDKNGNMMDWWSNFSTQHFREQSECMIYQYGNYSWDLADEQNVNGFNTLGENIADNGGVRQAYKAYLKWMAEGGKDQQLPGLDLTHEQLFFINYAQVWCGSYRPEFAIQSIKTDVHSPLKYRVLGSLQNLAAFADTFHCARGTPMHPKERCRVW
In short: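 Performed as for the NEP assay, with HPLC analysis and 10 nM phosphoramidon as the standard inhibitor. IC50 is the compound concentration blocking 50% of hSEP enzymatic activity.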

[2] = Plasma protein binding, equilibrium dialysis, human plasma; assay type: in vitro ADME; details: human plasma (10% for routine testing), 37° C., pH 7.4, 10% plasma (100% for low binders), read-out: % bound (human plasma) (converted)
Procedure: (§1) Plasma protein binding of the test substances of Formula I was measured using a validated equilibrium dialysis method. The dialysis cells consisted of two halves separated by a semi-permeable membrane slightly tensioned in between. […] Before being used, the membranes were re-hydrated by soaking in water followed by the dialysis buffer. Plasma (10% for routine testing, and 100% for compounds found to have a low protein binding) was heated to 37° C. and adjusted to pH 7.4 before use. 5 μM test compound solutions (final dimethylsulfoxide concentration 0.5%) were prepared in isotonic phosphate buffer containing rat or human plasma. The plasma-containing solution was on one side of the membrane, and the plasma-free on the other. Incubations were performed overnight (10% plasma assay), or for 2 hours (100% plasma assay) in triplicate. The cells were mounted in a drive unit that rotated the cells and ensured a uniform equilibrium was obtained. The equilibrium was temperature controlled by the drive unit being immersed in a water bath at 37° C. At the end of the equilibration time, the cells were emptied. The solutions for each batch of compounds were combined into two groups (plasma-free and plasma-containing) then cassette analysed by LC-MS/MS using two sets of calibration standards for plasma-free (7 points) and plasma-containing solutions (6 points). The percentage of protein bound compound was calculated as follows: [formula] PC=sample concentration in protein containing side; PF=sample concentration in protein free side;

[3] = molecular target: T2, soluble, human recombinant NEP (Homo sapiens, UniProt P08473); assay: In-vitro investigation of the NEP inhibitory action (fluorescence-quenched Big-ET-1 analogue, HPLC); assay type: biochemical
T2 construct: soluble, human recombinant NEP; purchased Prof; Crine, University of Montreal, Canada
In short: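 Enzyme preincubated with test substance 15 min at 37° C, then incubated with fluorescence-quenched Mca peptide substrate 60 min at 37° C and stopped by heating to 95° C. Cleaved and intact peptide separated by reversed-phase HPLC; unquenched Mca peak area (ex 328/em 393 nm) gave % inhibition versus no-compound control, duplicates, IC50 derived.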

[4] = Plasma protein binding, equilibrium dialysis, rat plasma; assay type: in vitro ADME; details: rat plasma (10% for routine testing), 37° C., pH 7.4, 10% plasma (100% for low binders), read-out: % bound (rat plasma) (converted)
Procedure: as §1

T2 sequence (P08473 52-750 limits assumed): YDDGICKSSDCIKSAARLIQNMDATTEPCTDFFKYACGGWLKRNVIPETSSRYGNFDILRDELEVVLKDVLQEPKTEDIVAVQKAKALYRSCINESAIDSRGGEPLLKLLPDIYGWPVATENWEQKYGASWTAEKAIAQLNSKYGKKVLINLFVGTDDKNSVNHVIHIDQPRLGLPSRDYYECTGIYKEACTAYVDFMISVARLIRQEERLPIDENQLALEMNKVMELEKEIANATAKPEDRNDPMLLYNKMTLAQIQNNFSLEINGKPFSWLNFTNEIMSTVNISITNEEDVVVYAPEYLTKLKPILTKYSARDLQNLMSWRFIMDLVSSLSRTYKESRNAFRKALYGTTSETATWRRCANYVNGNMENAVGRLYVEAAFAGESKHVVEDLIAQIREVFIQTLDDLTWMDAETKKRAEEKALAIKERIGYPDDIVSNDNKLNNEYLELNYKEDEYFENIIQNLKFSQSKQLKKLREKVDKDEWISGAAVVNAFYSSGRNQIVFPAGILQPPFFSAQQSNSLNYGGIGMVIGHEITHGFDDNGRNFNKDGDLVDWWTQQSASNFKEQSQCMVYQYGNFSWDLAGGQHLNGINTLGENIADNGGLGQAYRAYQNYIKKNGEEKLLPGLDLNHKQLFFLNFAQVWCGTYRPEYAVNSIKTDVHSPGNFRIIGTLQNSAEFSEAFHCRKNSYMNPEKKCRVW

Row | SMILES | pIC50 [1] | fraction unbound at 5 μM [2] | pIC50 [3] | fraction unbound at 5 μM [4]
1 | CCN(CCCCN)C(=O)CC(CC1(C(=O)NC2CCc3ccccc3N(CC(=O)O)C2=O)CCCC1)C(=O)O [Example 81, (2″rel1″)-4-[(4-aminobutyl)(ethyl)amino]-2-{[1-({[(3S)-1-(carboxymethyl)-2-oxo-2,3,4,5-tetrahydro-1H-1-benzazepin-3-yl]amino}carbonyl)cyclopentyl]methyl}-4-oxobutanoic acid] | 8.70 | 0.34 | 8.40 | 0.36
2 | CN(C)CCCN(C)C(=O)CC(CC1(C(=O)NC2CCc3ccccc3N(CC(=O)O)C2=O)CCCC1)C(=O)O (stereo not drawn) [Example 64, 2-[(1-{[1-(carboxymethyl)-2-oxo-2,3,4,5-tetrahydro-1H-1-benzazepin-3-yl]carbamoyl}cyclopentyl)methyl]-4-{[3-(dimethylamino)propyl](methyl)amino}-4-oxobutanoic acid] | 8.30 | ~1 | 8.05 | 0.83
3 | CC(C)NC(=O)CC(CC1(C(=O)N[C@H]2CCc3ccccc3N(CC(=O)O)C2=O)CCCC1)C(=O)O (stereo in doubt) [Example 3, (2″rel1″)-2-{[(3S)-1-({[1-(carboxymethyl)-2-oxo-2,3,4,5-tetrahydro-1H-1-benzazepin-3-yl]amino}-carbonyl)cyclopentyl]methyl}-4-(isopropylamino)-4-oxobutyric acid] | 8.11 | 0.58 | 7.75 | 0.31
